Among the data in patent US20260022142A1, “MACROCYCLIC IMMUNOMODULATORS” (Bristol-Myers Squibb Company, priority 2022, published 2026) are IC50 values, retold here.

Numbered stars: 1 amine (or outer) side, 2 acyl side, 3 side chain; on linkers, the order of the positions; unused ones are H or OH. Bridge positions count the residues as written; N and C are the ends. Square brackets hold non-standard residues; d marks the D form. Peptide text beside a SMILES is read from it. * marks the point of attachment. ξ: configuration not given here. Phe(3-CF3) = N[C@@H](Cc1cccc(C(F)(F)F)c1)C(=O)O; Phe(4-COOH) = N[C@@H](Cc1ccc(C(=O)O)cc1)C(=O)O; Bip = N[CH](Cc1ccc(-c2ccccc2)cc1)C(=O)O; Phe(3-Me) = Cc1cccc(C[C@H](N)C(=O)O)c1; γGlu = O=C(O)[C@H](CCC(=O)[*:2])N[*:1]; NH(CH2)12COOH = O=C(O)CCCCCCCCCCCCN*; NMeAEEA = CN(CCOCCOCC(=O)[*:2])[*:1]; Val(3-OH) = CC(C)(O)[C@H](N)C(=O)O; X16 = O=C(C1CCC(CN[*:1])CC1)[*:2]; hArg = N=C(N)NCCCC[C@H](N)C(=O)O; Cha = N[CH](CC1CCCCC1)C(=O)O; Cit = NC(=O)NCCC[C@H](N)C(=O)O; 4Pal = N[CH](Cc1ccncc1)C(=O)O; Thr(3ξ) = CC(O)[C@H](N)C(=O)O; Carboxymethyl = O=C(O)C*; Orn = NCCC[CH](N)C(=O)O; Aun = NCCCCCCCCCCC(=O)O; Dab = NCC[CH](N)C(=O)O; Dap = NC[C@H](N)C(=O)O; AEEA = NCCOCCOCC(=O)O

T1 sequence (Q15116 25-288): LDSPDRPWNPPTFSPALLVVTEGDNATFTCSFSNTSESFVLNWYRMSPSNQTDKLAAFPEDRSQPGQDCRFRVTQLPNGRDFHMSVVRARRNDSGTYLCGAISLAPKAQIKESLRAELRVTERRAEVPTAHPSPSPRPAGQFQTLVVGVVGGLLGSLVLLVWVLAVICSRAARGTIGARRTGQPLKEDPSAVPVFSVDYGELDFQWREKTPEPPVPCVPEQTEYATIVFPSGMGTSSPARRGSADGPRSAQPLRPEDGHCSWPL

This experiment addresses T1, PD-1/PD-L1 interaction (PE-labeled human PD-L1-Ig binding to Jurkat cell line over-expressing human PD-1) (Homo sapiens, UniProt Q15116).
T1 construct: expressed in transfected cells; host or cells: Jurkat
Put plainly: Jurkat-PD-1 Cell Binding High-Content Screening Assay (CBA). The class given is cell-based. The note with it: Jurkat cell line over-expressing human PD-1; PE-labeled PD-L1-Ig 20 nM final; read-out: Jurkat hPD1-PDL1 IC50. The gist of the method:
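Human PD-L1-Ig carrying a covalent PE label on its Ig tag serves as the probe, applied at 20 nM final to compound-treated (2 h, 37° C) Jurkat-hPD-1 cells in medium with 10% fetal calf serum. After one hour, fixation and nuclear staining precede high-content image analysis.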
Turning to `Cc1cccc(C[C@@H]2NC(=O)[C@H](CC(=O)O)NC(=O)[C@H](Cc3ccc(OCC(=O)O)cc3)NC(=O)[C@H](CN)NC(=O)CSC[C@@H](C(=O)NCC3CCC(C(=O)NCCCCCCCCCCC(=O)O)CC3)NC(=O)[C@H]([C@@H](C)O)NC(=O)[C@H](C(C)C)NC(=O)[C@H](CC3CCCCC3)NC(=O)[C@H](CCN)NC(=O)[C@@H](CC(C)C)NC(=O)[C@H](CCCN)NC(=O)[C@H](CCCNC(N)=O)NC(=O)[C@H](Cc3ccc(-c4ccccc4)cc3)NC(=O)[C@H](C(C)C)NC2=O)c1` (stereo partly drawn) [Compound 2623] ({CH2CO}-[Dap]Y(Carboxymethyl)D[Phe(3-Me)]V[Bip][Cit][Orn][dL][Dab][Cha]VTC[X16][Aun]-OH; thioether N-14), the IC50 was 27.5 nM.
As to `CCC(C)C1NC(=O)C(Cc2ccc(-c3ccccc3)cc2)NC(=O)C(CC(C)C)NC(=O)C(Cc2c[nH]c3ccccc23)NC(=O)C(CC(=O)O)NC(=O)C(Cc2ccc(OCC(=O)O)cc2)NC(=O)C(Cc2ccncc2)NC(=O)CSCC(C(=O)NCCOCCOCC(=O)NC(CCCN)C(=O)NCCCCCCCCCCC(=O)O)NC(=O)C(C(C)O)NC(=O)C(C(C)C)NC(=O)C(CC2CCCCC2)NC(=O)C(CCN)NC(=O)C(CC(C)C)NC(=O)C(CCCN)NC1=O` (stereo not shown) [Compound 3089] ({CH2CO}-[4Pal]Y(Carboxymethyl)DWL[Bip]I[Orn]L[Dab][Cha]VTC[AEEA][Orn][Aun]-OH; thioether N-14; configuration not given here), the IC50 amounted to 39.2 nM.
For `Cc1cccc(C[C@@H]2NC(=O)[C@H](CC(=O)O)NC(=O)[C@H](Cc3ccc(OCC(=O)O)cc3)NC(=O)[C@H](CN)NC(=O)CSC[C@@H](C(=O)NCCOCCOCC(=O)NCCCCCCCCCCC(=O)O)NC(=O)[C@H](CN)NC(=O)[C@H](C(C)C)NC(=O)[C@H](CC3CCCCC3)NC(=O)[C@H](CCN)NC(=O)[C@@H](CC(C)C)NC(=O)[C@H](CCCN)NC(=O)[C@H](CCC(=O)O)NC(=O)[C@H](Cc3ccc(-c4ccccc4)cc3)NC(=O)[C@H](C(C)C)NC2=O)c1` [Compound 2666] ({CH2CO}-[Dap]Y(Carboxymethyl)D[Phe(3-Me)]V[Bip]E[Orn][dL][Dab][Cha]V[Dap]C[AEEA][Aun]-OH; thioether N-14), the IC50 was 18 nM.
Consider `CC(C)C[C@H]1NC(=O)[C@H](CN)NC(=O)[C@H](C(C)C)NC(=O)[C@H](Cc2ccc(-c3ccccc3)cc2)NC(=O)[C@H](C(C)C)NC(=O)[C@H](Cc2c[nH]c3ccccc23)NC(=O)[C@H](CC(=O)O)NC(=O)[C@H](Cc2ccc(OCC(=O)O)cc2)NC(=O)[C@H](CCCCNC(=N)N)NC(=O)CSC[C@@H](C(=O)NCCOCCOCC(=O)NCCCCCCCCCCC(=O)O)NC(=O)[C@H](CCCCN)NC(=O)[C@H](C(C)C)NC(=O)[C@H](CC2CCCCC2)NC(=O)[C@H](CCN)NC1=O` [Compound 3266] ({CH2CO}-[hArg]Y(Carboxymethyl)DWV[Bip]V[Dap][dL][Dab][Cha]VKC[AEEA][Aun]-OH; thioether N-14), for which the IC50 came to 9.2 nM.
Take `COC[C@@H]1NC(=O)CSC[C@@H](C(=O)N[C@@H](CCN)C(=O)NCCCCCCCCCCCCC(=O)O)NC(=O)[C@H](CO)NC(=O)[C@H](C(C)(C)O)NC(=O)[C@H](CC2CCCCC2)NC(=O)[C@H](CCN)NC(=O)[C@@H](CC(C)C)NC(=O)[C@H](CCCN)NC(=O)[C@H](Cc2ccc(C(=O)O)cc2)NC(=O)[C@H](Cc2ccc(-c3ccccc3)cc2)NC(=O)[C@H](Cc2ccc(C(=O)O)cc2)NC(=O)[C@H](Cc2cccc(C(F)(F)F)c2)NC(=O)[C@H](CC(=O)O)NC(=O)[C@H](Cc2ccc(OCC(=O)O)cc2)NC1=O` [Compound 2907] ({CH2CO}-S(Me)Y(Carboxymethyl)D[Phe(3-CF3)][Phe(4-COOH)][Bip][Phe(4-COOH)][Orn][dL][Dab][Cha][Val(3-OH)]SC[Dab]-{NH(CH2)12COOH}; thioether N-14): the IC50 was 41.8 nM.
`Cc1cccc(C[C@@H]2NC(=O)[C@H](CC(=O)O)NC(=O)[C@H](Cc3ccc(OCC(=O)O)cc3)NC(=O)[C@H](C(C)O)NC(=O)CSC[C@@H](C(=O)N(C)CCOCCOCC(=O)NCCCCCCCCCCC(=O)O)NC(=O)[C@H](CCCN)NC(=O)[C@H](C(C)C)NC(=O)[C@H](CC3CCCCC3)NC(=O)[C@H](CCN)NC(=O)[C@@H](CC(C)C)NC(=O)[C@H](CCN)NC(=O)[C@H](C(C)C)NC(=O)[C@H](Cc3ccc(-c4ccccc4)cc3)NC(=O)[C@H](C(C)C)NC2=O)c1` (stereo partly drawn) [Compound 3353] ({CH2CO}-[Thr(3ξ)]Y(Carboxymethyl)D[Phe(3-Me)]V[Bip]V[Dab][dL][Dab][Cha]V[Orn]C[NMeAEEA][Aun]-OH; thioether N-14): the IC50 stood at 140 nM.
For the compound `Cc1cccc(C[C@@H]2NC(=O)[C@H](CC(=O)O)NC(=O)[C@H](Cc3ccc(OCC(=O)O)cc3)NC(=O)[C@H](CN)NC(=O)CSC[C@@H](C(=O)NCCOCCOCC(=O)N[C@@H](CCC(=O)NCCCCCCCCCCC(=O)O)C(=O)O)NC(=O)[C@H]([C@@H](C)O)NC(=O)[C@H](C(C)C)NC(=O)[C@H](CC3CCCCC3)NC(=O)[C@H](CCN)NC(=O)[C@@H](CC(C)C)NC(=O)[C@H](CCCN)NC(=O)[C@H](CCCNC(N)=O)NC(=O)[C@H](Cc3ccc(-c4ccccc4)cc3)NC(=O)[C@H](C(C)C)NC2=O)c1` [Compound 1030] ({CH2CO}-[Dap]Y(Carboxymethyl)D[Phe(3-Me)]V[Bip][Cit][Orn][dL][Dab][Cha]VTC[AEEA][γGlu][Aun]-OH; thioether N-14), the IC50 is 4.3 nM.
The figure for `Cc1cccc(C[C@@H]2NC(=O)[C@H](CC(=O)O)NC(=O)[C@H](Cc3ccc(OCC(=O)O)cc3)NC(=O)[C@H](CN)NC(=O)CSC[C@@H](C(=O)N[C@@H](CCN)C(=O)NCCCCCCCCCCC(=O)O)NC(=O)[C@@H](CC(N)=O)NC(=O)[C@H](C(C)C)NC(=O)[C@H](CC(C)C)NC(=O)[C@H](CCN)NC(=O)[C@@H](CC(C)C)NC(=O)[C@H](CCCN)NC(=O)[C@H](Cc3ccc(O)cc3)NC(=O)[C@H](Cc3ccc(-c4ccccc4)cc3)NC(=O)[C@H](C(C)C)NC2=O)c1` [Compound 2755] ({CH2CO}-[Dap]Y(Carboxymethyl)D[Phe(3-Me)]V[Bip]Y[Orn][dL][Dab]LV[dN]C[Dab][Aun]-OH; thioether N-14) is 30.5 nM; for `Cc1cccc(C[C@@H]2NC(=O)[C@H](CC(=O)O)NC(=O)[C@H](Cc3ccc(OCC(=O)O)cc3)NC(=O)[C@H](CN)NC(=O)CSC[C@@H](C(=O)NCCOCCOCC(=O)NCCCCCCCCCCC(=O)O)NC(=O)[C@H](CN)NC(=O)[C@H](Cc3ccc(O)cc3)NC(=O)[C@H](CC3CCCCC3)NC(=O)[C@H](CCN)NC(=O)[C@@H](CC(C)C)NC(=O)[C@H](CCCN)NC(=O)[C@H](Cc3ccc(O)cc3)NC(=O)[C@H](Cc3ccc(-c4ccccc4)cc3)NC(=O)[C@H](Cc3ccc(O)cc3)NC2=O)c1` [Compound 2518] ({CH2CO}-[Dap]Y(Carboxymethyl)D[Phe(3-Me)]Y[Bip]Y[Orn][dL][Dab][Cha]Y[Dap]C[AEEA][Aun]-OH; thioether N-14) it is 207 nM.
For `Cc1cccc(C[C@@H]2NC(=O)[C@H](CC(=O)O)NC(=O)[C@H](Cc3ccc(OCC(=O)O)cc3)NC(=O)[C@H](CCCNC(=N)N)NC(=O)CSC[C@@H](C(=O)N[C@@H](CCN)C(=O)NCCCCCCCCCCC(=O)O)NC(=O)[C@H]([C@@H](C)O)NC(=O)[C@H](C(C)C)NC(=O)[C@H](CC3CCCCC3)NC(=O)[C@H](CCN)NC(=O)[C@@H](CC(C)C)NC(=O)[C@H](CCCN)NC(=O)[C@H](Cc3ccc(OCC(=O)O)cc3)NC(=O)[C@H](Cc3ccc(-c4ccccc4)cc3)NC(=O)[C@H](Cc3ccc(OCC(=O)O)cc3)NC2=O)c1` [Compound 2085] ({CH2CO}-RY(Carboxymethyl)D[Phe(3-Me)]Y(Carboxymethyl)[Bip]Y(Carboxymethyl)[Orn][dL][Dab][Cha]VTC[Dab][Aun]-OH; thioether N-14), the IC50 amounted to 8.6 nM.
